Read-outs that look alike come from different tables or passages of the source.
Experiments:
human Gal-3 (hGal-3) = human Gal-3 (hGal-3) (Homo sapiens (Human), UniProt P17931); experiment: competitive binding assay: biotinylated hGal-3 binding to microplate-adsorbed asialofetuin (ASF); settings: read-out: IC50 (Gal-3 inhibition)
Outline: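 3 h, 4 °C binding step; cold buffer wash; streptavidin-HRP 80 ng/mL, 1 h, 4 °C; ABTS colorimetric read-out. Compounds diluted serially in DMSO. IC50 reported as mean of repeat runs.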

human Gal-1 (hGal-1) = human Gal-1 (hGal-1) (Homo sapiens (Human), UniProt P09382); experiment: competitive binding assay: biotinylated hGal-1 binding to microplate-adsorbed asialofetuin (ASF); settings: Table 15; read-out: IC50 (Galectin-1 inhibition)
Sequence of human Gal-1 (hGal-1) (P09382 whole entry): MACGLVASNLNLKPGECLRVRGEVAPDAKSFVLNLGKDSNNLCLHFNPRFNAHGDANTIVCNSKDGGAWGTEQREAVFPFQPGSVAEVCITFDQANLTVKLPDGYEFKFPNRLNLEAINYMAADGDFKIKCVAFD
Outline: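 Spectrophotometric competition readout: after compound and biotinylated hGal-1 (300-1000 ng/mL) sit 3 h at 4° C on adsorbed asialofetuin, streptavidin-peroxidase (1 h, 4° C) and ABTS reveal residual binding. Reported IC50 values are means of repeat runs.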

Sequence of human Gal-3 (hGal-3) (P17931 whole entry): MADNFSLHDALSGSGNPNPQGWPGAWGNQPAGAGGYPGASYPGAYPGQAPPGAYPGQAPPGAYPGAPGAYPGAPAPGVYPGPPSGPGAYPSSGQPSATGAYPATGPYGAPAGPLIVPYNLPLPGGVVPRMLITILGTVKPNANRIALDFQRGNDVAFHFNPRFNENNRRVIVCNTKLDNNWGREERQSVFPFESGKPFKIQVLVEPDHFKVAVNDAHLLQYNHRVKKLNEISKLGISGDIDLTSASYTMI

Row | IC50 (human Gal-3 (hGal-3); Table 10, 2-OMe-Gal inhibitors) [nM] | IC50 (human Gal-1 (hGal-1)) [nM] | IC50 (human Gal-3 (hGal-3); Table 9, 2-OMe-Gal inhibitors) [nM] | IC50 (human Gal-3 (hGal-3); Table 11) [nM] | Compound
1 | 15600 | > 100000 |  |  | CO[C@@H]1[C@@H](n2cc(-c3cc(F)c(F)c(F)c3)nn2)[C@@H](O)[C@@H](CO)O[C@H]1S[C@@H](c1c(C)cnn1C)C1(O)CCC(F)(F)CC1 [Example 2.44.136S.I., (2R,3R,4S,5R,6S)-6-(((S)-(4,4-Difluoro-1-hydroxycyclohexyl)(1,4-dimethyl-1H-pyrazol-5-yl)methyl)thio)-2-(hydroxymethyl)-5-methoxy-4-(4-(3,4,5-trifluorophenyl)-1H-1,2,3-triazol-1-yl)tetrahydro-2H-pyran-3-ol]
2 |  | 4360 | 140 |  | CO[C@@H]1[C@@H](n2cc(-c3cc(F)c(F)c(F)c3)nn2)[C@@H](O)[C@@H](CO)O[C@H]1SC(c1ncccc1Cl)C1(O)CCC(F)(F)CC1 (stereo partly drawn) [Example 2.44.137.I., (2R,3R,4S,5R,6S)-6-(((3-Chloropyridin-2-yl)(4,4-difluoro-1-hydroxycyclohexyl)methyl)thio)-2-(hydroxymethyl)-5-methoxy-4-(4-(3,4,5-trifluorophenyl)-1H-1,2,3-triazol-1-yl)tetrahydro-2H-pyran-3-ol]
3 |  | 720 | 70 |  | CO[C@@H]1[C@@H](n2cc(-c3cc(F)c(F)c(F)c3)nn2)[C@@H](O)[C@@H](CO)O[C@H]1S[C@H](c1ncccc1Cl)C1(O)CCC(F)(F)CC1 [Example 2.44.137R.I., (2R,3R,4S,5R,6S)-6-(((R)-(3-Chloropyridin-2-yl)(4,4-difluoro-1-hydroxycyclohexyl)methyl)thio)-2-(hydroxymethyl)-5-methoxy-4-(4-(3,4,5-trifluorophenyl)-1H-1,2,3-triazol-1-yl)tetrahydro-2H-pyran-3-ol]
4 | 300 | 840 |  |  | CCn1nnc(C)c1C(S[C@@H]1O[C@H](CO)[C@H](O)[C@H](n2cc(-c3cc(F)c(F)c(F)c3)nn2)[C@H]1OC)C1(O)CCC(F)(F)CC1 (stereo partly drawn) [Example 2.44.138.I., (2R,3R,4S,5R,6S)-6-(((4,4-Difluoro-1-hydroxycyclohexyl)(1-ethyl-4-methyl-1H-1,2,3-triazol-5-yl)methyl)thio)-2-(hydroxymethyl)-5-methoxy-4-(4-(3,4,5-trifluorophenyl)-1H-1,2,3-triazol-1-yl)tetrahydro-2H-pyran-3-ol]
5 | 150 | 400 |  |  | CCn1nnc(C)c1[C@@H](S[C@@H]1O[C@H](CO)[C@H](O)[C@H](n2cc(-c3cc(F)c(F)c(F)c3)nn2)[C@H]1OC)C1(O)CCC(F)(F)CC1 [Example 2.44.138R.I., (2R,3R,4S,5R,6S)-6-(((R)-(4,4-Difluoro-1-hydroxycyclohexyl)(1-ethyl-4-methyl-1H-1,2,3-triazol-5-yl)methyl)thio)-2-(hydroxymethyl)-5-methoxy-4-(4-(3,4,5-trifluorophenyl)-1H-1,2,3-triazol-1-yl)tetrahydro-2H-pyran-3-ol]
6 | 13200 | > 100000 |  |  | CCn1nnc(C)c1[C@H](S[C@@H]1O[C@H](CO)[C@H](O)[C@H](n2cc(-c3cc(F)c(F)c(F)c3)nn2)[C@H]1OC)C1(O)CCC(F)(F)CC1 [Example 2.44.138S.I., (2R,3R,4S,5R,6S)-6-(((S)-(4,4-Difluoro-1-hydroxycyclohexyl)(1-ethyl-4-methyl-1H-1,2,3-triazol-5-yl)methyl)thio)-2-(hydroxymethyl)-5-methoxy-4-(4-(3,4,5-trifluorophenyl)-1H-1,2,3-triazol-1-yl)tetrahydro-2H-pyran-3-ol]
7 | 620 | 3900 |  |  | CCn1ncc(Cl)c1C(S[C@@H]1O[C@H](CO)[C@H](O)[C@H](n2cc(-c3cc(F)c(F)c(F)c3)nn2)[C@H]1OC)C1(O)CCC(F)(F)CC1 (stereo partly drawn) [Example 2.44.139.I., (2R,3R,4S,5R,6S)-6-(((4-Chloro-1-ethyl-1H-pyrazol-5-yl)(4,4-difluoro-1-hydroxycyclohexyl)methyl)thio)-2-(hydroxymethyl)-5-methoxy-4-(4-(3,4,5-trifluorophenyl)-1H-1,2,3-triazol-1-yl)tetrahydro-2H-pyran-3-ol]
8 | 320 | 540 |  |  | CCn1ncc(Cl)c1[C@@H](S[C@@H]1O[C@H](CO)[C@H](O)[C@H](n2cc(-c3cc(F)c(F)c(F)c3)nn2)[C@H]1OC)C1(O)CCC(F)(F)CC1 [Example 2.44.139R.I., (2R,3R,4S,5R,6S)-6-(((R)-(4-Chloro-1-ethyl-1H-pyrazol-5-yl)(4,4-difluoro-1-hydroxycyclohexyl)methyl)thio)-2-(hydroxymethyl)-5-methoxy-4-(4-(3,4,5-trifluorophenyl)-1H-1,2,3-triazol-1-yl)tetrahydro-2H-pyran-3-ol]
9 | 37900 | > 100000 |  |  | CCn1ncc(Cl)c1[C@H](S[C@@H]1O[C@H](CO)[C@H](O)[C@H](n2cc(-c3cc(F)c(F)c(F)c3)nn2)[C@H]1OC)C1(O)CCC(F)(F)CC1 [Example 2.44.139S.I., (2R,3R,4S,5R,6S)-6-(((S)-(4-Chloro-1-ethyl-1H-pyrazol-5-yl)(4,4-difluoro-1-hydroxycyclohexyl)methyl)thio)-2-(hydroxymethyl)-5-methoxy-4-(4-(3,4,5-trifluorophenyl)-1H-1,2,3-triazol-1-yl)tetrahydro-2H-pyran-3-ol]
10 | 120 | 700 |  |  | CCc1onc([C@@H](S[C@@H]2O[C@H](CO)[C@H](O)[C@H](n3cc(-c4cc(F)c(F)c(F)c4)nn3)[C@H]2OC)C2(O)CCC(F)(F)CC2)c1C [Example 2.44.140R.I., (2R,3R,4S,5R,6S)-6-(((R)-(4,4-Difluoro-1-hydroxycyclohexyl)(5-ethyl-4-methylisoxazol-3-yl)methyl)thio)-2-(hydroxymethyl)-5-methoxy-4-(4-(3,4,5-trifluorophenyl)-1H-1,2,3-triazol-1-yl)tetrahydro-2H-pyran-3-ol]
11 |  | 860 |  | 150 | CO[C@@H]1[C@@H](n2cc(-c3cc(F)c(F)c(F)c3)nn2)[C@@H](O)[C@@H](CO)O[C@H]1SC(c1nccc(Cl)c1C)C1(O)CCC(F)(F)CC1 (stereo partly drawn) [Example 2.44.141.I., (2R,3R,4S,5R,6S)-6-(((4-Chloro-3-methylpyridin-2-yl)(4,4-difluoro-1-hydroxycyclohexyl)methyl)thio)-2-(hydroxymethyl)-5-methoxy-4-(4-(3,4,5-trifluorophenyl)-1H-1,2,3-triazol-1-yl)tetrahydro-2H-pyran-3-ol]
12 |  | 350 |  | 70 | CO[C@@H]1[C@@H](n2cc(-c3cc(F)c(F)c(F)c3)nn2)[C@@H](O)[C@@H](CO)O[C@H]1S[C@H](c1nccc(Cl)c1C)C1(O)CCC(F)(F)CC1 [Example 2.44.141R.I., (2R,3R,4S,5R,6S)-6-(((R)-(4-Chloro-3-methylpyridin-2-yl)(4,4-difluoro-1-hydroxycyclohexyl)methyl)thio)-2-(hydroxymethyl)-5-methoxy-4-(4-(3,4,5-trifluorophenyl)-1H-1,2,3-triazol-1-yl)tetrahydro-2H-pyran-3-ol]
13 |  | 10500 |  | 3500 | CO[C@@H]1[C@@H](n2cc(-c3cc(F)c(F)c(F)c3)nn2)[C@@H](O)[C@@H](CO)O[C@H]1S[C@@H](c1nccc(Cl)c1C)C1(O)CCC(F)(F)CC1 [Example 2.44.141S.I., (2R,3R,4S,5R,6S)-6-(((S)-(4-Chloro-3-methylpyridin-2-yl)(4,4-difluoro-1-hydroxycyclohexyl)methyl)thio)-2-(hydroxymethyl)-5-methoxy-4-(4-(3,4,5-trifluorophenyl)-1H-1,2,3-triazol-1-yl)tetrahydro-2H-pyran-3-ol]
14 |  | 190 |  | 50 | CCc1cccnc1C(S[C@@H]1O[C@H](CO)[C@H](O)[C@H](n2cc(-c3cc(F)c(F)c(F)c3)nn2)[C@H]1OC)C1(O)CCC(F)(F)CC1 (stereo partly drawn) [Example 2.44.142.I., (2R,3R,4S,5R,6S)-6-(((4,4-Difluoro-1-hydroxycyclohexyl)(3-ethylpyridin-2-yl)methyl)thio)-2-(hydroxymethyl)-5-methoxy-4-(4-(3,4,5-trifluorophenyl)-1H-1,2,3-triazol-1-yl)tetrahydro-2H-pyran-3-ol]
15 |  | 100 |  | 30 | CCc1cccnc1[C@@H](S[C@@H]1O[C@H](CO)[C@H](O)[C@H](n2cc(-c3cc(F)c(F)c(F)c3)nn2)[C@H]1OC)C1(O)CCC(F)(F)CC1 [Example 2.44.142R.I., (2R,3R,4S,5R,6S)-6-(((R)-(4,4-Difluoro-1-hydroxycyclohexyl)(3-ethylpyridin-2-yl)methyl)thio)-2-(hydroxymethyl)-5-methoxy-4-(4-(3,4,5-trifluorophenyl)-1H-1,2,3-triazol-1-yl)tetrahydro-2H-pyran-3-ol [1,3-di-deoxy-1-((4,4-difluoro-1-hydroxy-cyclohexan-1-yl)-(3-(-ethyl)pyridin-2-yl)methyl-(R)-thio)-2-O-methyl-3-[4-(3,4,5-trifluorophenyl)-1H-1,2,3-triazol-1-yl]-b-D-galactopyranoside]]
16 |  | 8310 |  | 8110 | CCc1cccnc1[C@H](S[C@@H]1O[C@H](CO)[C@H](O)[C@H](n2cc(-c3cc(F)c(F)c(F)c3)nn2)[C@H]1OC)C1(O)CCC(F)(F)CC1 [Example 2.44.142S.I., (2R,3R,4S,5R,6S)-6-(((S)-(4,4-Difluoro-1-hydroxycyclohexyl)(3-ethylpyridin-2-yl)methyl)thio)-2-(hydroxymethyl)-5-methoxy-4-(4-(3,4,5-trifluorophenyl)-1H-1,2,3-triazol-1-yl)tetrahydro-2H-pyran-3-ol]
17 |  | 850 |  | 140 | CO[C@@H]1[C@@H](n2cc(-c3cc(F)c(F)c(F)c3)nn2)[C@@H](O)[C@@H](CO)O[C@H]1SC(c1nccc(Cl)c1Cl)C1(O)CCC(F)(F)CC1 (stereo partly drawn) [Example 2.44.143.I., (2R,3R,4S,5R,6S)-6-(((3,4-Dichloropyridin-2-yl)(4,4-difluoro-1-hydroxycyclohexyl)methyl)thio)-2-(hydroxymethyl)-5-methoxy-4-(4-(3,4,5-trifluorophenyl)-1H-1,2,3-triazol-1-yl)tetrahydro-2H-pyran-3-ol]

— patent publication US12404295B2, “(Hetero)aryl-methyl-thio-beta-D-galactopyranoside derivatives” (Idorsia Pharmaceuticals Ltd, priority 2019, dated 2025)
